Source: PubChem BioAssay (NCI)
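Exposure lasted 48 hours, with cells grown in 96-well plates and compounds tested at five concentrations. TGI marks complete inhibition of growth.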

Test system: SN12K1 renal
Experiment: inhibition of tumour cell growth, NCI panel, 48 h

Compound | TGI
CNC(=O)OCc1nc(SC2CCCCO2)n(C)c1COC(=O)NC (configuration not stated) | > 100 µM
COc1cc(C2c3cc4c(cc3[C@@H](Nc3ccc(C#N)cc3)C3COC(=O)[C@H]23)OCO4)cc(OC)c1O (some centres not stated) | 3.94 µM
